Test results as given in publication PMC11360483, “Anti-Inflammatory, Antibacterial, Anti-Biofilm, and Anti-Quorum Sensing Activities of the Diterpenes Isolated from Clinopodium bolivianum” (Pharmaceutics, 2024).
≈ marks a conversion by molar mass, not a printed value. Where “and” joins values, the source holds several entries; their conditions need not be identical. Equal entries are not always repeated. Structures can show the parent of a compound that is named as a salt. Where two headings read alike, the source gives them in different places. *1 amine or outer side, *2 acyl side, *3 side chain or, on linkers, in order; H or OH if unused. Where a SMILES comes first, the peptide text is derived from it. Bridges are numbered along the chain shown (N, C = ends). Roman numbers before positions name the chains, in order. [ ]: non-standard residue; d: D form. Actinocin(9to1) = Cc1c2oc3c(C)ccc(C(=O)[*:1])c3nc-2c(C(=O)[*:2])c(N)c1=O; NMeV = CN[C@H](C(=O)O)C(C)C; Sar = CNCC(=O)O

What was measured:
L. pneumophila [1] = test: microbe, parasite or virus in culture; type: cell-based; conditions: Legionella pneumophila, 24 h
Hep3B cells = test system: Hep3B cells; set-up: method as in PMID 37423053; conditions: cited from earlier work
[2] = test system: H. influenzae, L. pneumophila, S. pneumoniae, and S. aureus; test: organism not typed; type: cell-based
S. aureus [3] = test: microbe, parasite or virus in culture; type: cell-based; conditions: Staphylococcus aureus, 24 h
[4] = WST-1 cytotoxicity (viability) assay, control cell line; conditions: human
[5] = WST-1 cytotoxicity assay, cell line not singled out; conditions: human
L. pneumophila [6] = type: cell-based, Legionella pneumophila
C. violaceum [7] = test: Anti-biofilm activity on C. violaceum; type: cell-based, Chromobacterium violaceum
S. aureus [8] = type: cell-based, Staphylococcus aureus
H. influenzae [9] = test: microbe, parasite or virus in culture; type: cell-based; conditions: Haemophilus influenzae, 24 h
NF-κB [10] = test: NF-κB inhibition assay (LPS-stimulated) in THP-1; type: cell-based; conditions: Homo sapiens, read-out: NF-κB Inhibition at 24 h IC50 ± SEM
C. violaceum [11] = type: cell-based, Chromobacterium violaceum; conditions: for % of Violacein Inhibition: at the Anti-QS concentration (compound 3 at 0.94 µM, compound 4 at 1.16 µM)
S. pneumoniae [12] = test: microbe, parasite or virus in culture; type: cell-based; conditions: Streptococcus pneumoniae, 24 h
NF-κB [13] = test: NF-κB inhibition assay (LPS-stimulated) in HBEC3-KT; type: cell-based; conditions: Homo sapiens, 24 h, read-out: NF-κB Inhibition at 24 h IC50 ± SEM
NF-κB [14] = test: NF-κB inhibition assay (LPS-stimulated) in MRC-5; type: cell-based; conditions: Homo sapiens, read-out: NF-κB Inhibition at 24 h IC50 ± SEM
Huh7 cells = test system: Huh7 cells; set-up: method as in PMID 37423053; conditions: cited from earlier work
H. influenzae [15] = type: cell-based, Haemophilus influenzae
S. pneumoniae [16] = type: cell-based, Streptococcus pneumoniae
[17] = WST-1 cytotoxicity (viability) assay; conditions: human, WST-1, 24 h, MRC-5
[18] = WST-1 cytotoxicity (viability) assay; conditions: human, WST-1, 24 h, HBEC3-KT
[19] = test system: H. influenzae, L. pneumophila, S. pneumoniae, and S. aureus; type: cell-based; conditions: strain not stated
RAW 264.7 cells = test system: RAW 264.7 cells; set-up: method as in doi:10.1016/j.phytol.2020.01.005; conditions: read-out: IC50, inhibition of nitric oxide (NO) production; cited from earlier work
[20] = test system: H. influenzae, L. pneumophila, S. pneumoniae, and S. aureus; type: cell-based; conditions: strain not stated; remark: listed apart in the source
[21] = range over S. pneumoniae and S. aureus Gram-positive bacteria
[22] = MRC5, MRC-5, LPS-stimulated, 24 h
[23] = value given in the method for the compounds
[24] = value given in the method for the extracts

SMILES	MIC (L. pneumophila [1])	MIC (S. aureus [3])	CC50 at 24 h [4]	Quorum Sensing Inhibition at 24 h Anti-QS ± SEM (L. pneumophila [6])	BIC (C. violaceum [7])	Quorum Sensing Inhibition at 24 h Anti-QS ± SEM (S. aureus [8])	MIC (H. influenzae [9])	IC50 (NF-κB [10]; THP-1, LPS-stimulated, 24 h)	Anti-QS (C. violaceum [11])	% of Violacein Inhibition (C. violaceum [11])	MIC (S. pneumoniae [12])	IC50 (NF-κB [13]; LPS-stimulated)	IC50 (NF-κB [14]; [22])	Quorum Sensing Inhibition at 24 h Anti-QS ± SEM (H. influenzae [15])	Quorum Sensing Inhibition at 24 h Anti-QS ± SEM (S. pneumoniae [16])	also measured
CC1=C2C=C3CCC4C(C)(C)CCC[C@]4(C)C3CC2OC1=O (single isomer, unassigned; (-)) [Compound 3, (−)-Jolkinolide E]	1.71 µM (≈ 0.514 µg/mL)	1.09 µM (≈ 0.327 µg/mL)	71.2 µM	0.31 ± 0.03 µM	1.62 ± 0.06 µM	4.88 ± 0.09 µM	4.89 µM (≈ 1.47 µg/mL)	29.4 ± 0.48 µM	0.94 ± 0.03 µM	78.13%	0.53 µM (≈ 0.159 µg/mL)	18 ± 0.37 µM	23.96 ± 0.21 µM	0.64 ± 0.01 µM	3.01 ± 0.07 µM	cytotoxicity (Hep3B cells): 37.23 µM; MIC [2, 21]: 0.53 to 1.09 µM; CC50 at 24 h [5]: > 70000 nM; cytotoxicity (Huh7 cells): 39.53 µM
Cc1c2oc3c(C)ccc(C(=O)N[C@@H]4C(=O)N[C@H](C(C)C)C(=O)N5CCC[C@H]5C(=O)N(C)CC(=O)N(C)[C@@H](C(C)C)C(=O)O[C@@H]4C)c3nc-2c(C(=O)N[C@@H]2C(=O)N[C@H](C(C)C)C(=O)N3CCC[C@H]3C(=O)N(C)CC(=O)N(C)[C@@H](C(C)C)C(=O)O[C@@H]2C)c(N)c1=O [ACTD, Actinomycin D, reference compound] (I: T[dV]P[Sar][NMeV] / II: T[dV]P[Sar][NMeV]; ester I:1-I:C, II:1-II:C; linker I:N-II:N via Actinocin(9to1))																CC50 at 24 h [17]: 0.017 µg/mL and 10 nM; CC50 at 24 h ([4]; Viability (CC50), WST-1, 24 h, THP-1): 0.019 µg/mL and 10 nM; CC50 at 24 h ([5]; CC50, cell line not singled out, for the compounds): 8 nM; CC50 at 24 h ([5]; CC50 of positive control, value given in the method for the extracts, cell line not stated): 0.01 µg/mL; CC50 at 24 h [18]: 0.014 µg/mL and 10 nM
CC1=C(O)C(=O)C=C2C1=CC=C1[C@@]2(C)CC[C@@]2(C)[C@@H]3C[C@](C)(C(=O)O)CC[C@]3(C)CC[C@]12C [CEL, Celastrol, reference compound]																IC50 (NF-κB [10]; THP-1, 24 h): 7.63 µM and 3.34 µg/mL; IC50 (NF-κB [13]): 7.15 µM and 3.24 µg/mL; IC50 (NF-κB [14]; MRC5, 24 h): 7.41 µM and 3.27 µg/mL
N=C(NCCCCCCNC(=N)NC(=N)Nc1ccc(Cl)cc1)NC(=N)Nc1ccc(Cl)cc1.O=C(O)[C@H](O)[C@@H](O)[C@H](O)[C@H](O)CO.O=C(O)[C@H](O)[C@@H](O)[C@H](O)[C@H](O)CO [CHG, chlorhexidine digluconate]																BIC of reference control [19, 23]: 2.23 µM; BIC of reference control [19, 24]: 2000 µg/mL
O=C(O)c1cn(C2CC2)c2cc(N3CCNCC3)c(F)cc2c1=O [CIP, Ciprofloxacin hydrochloride, reference compound]					2.13 ± 0.01 µM				1.51 ± 0.01 µM	71.68%						violacein inhibitory concentration (CIV) (C. violaceum [11]; reference standard): 1.51 µM
CC(C)(O)C1=CC2=CCC3[C@](C)(CCC[C@@]3(C)C(=O)O)C2CC1=O (some centres unmarked) [Compound 1, 15-Hydroxy-12-oxo-abietic acid]	20.2 µM (≈ 6.72 µg/mL)	7.88 µM (≈ 2.62 µg/mL)	88.4 µM	2.44 ± 0.09 µM	11.31 ± 0.07 µM	12.24 ± 0.08 µM	28.3 µM (≈ 9.42 µg/mL)	43.4 ± 0.73 µM	4.83 ± 0.05 µM	20.45%	4.14 µM (≈ 1.38 µg/mL)	27.9 ± 0.89 µM	39.01 ± 0.22 µM	4.64 ± 0.09 µM	9.89 ± 0.04 µM	
CC(C)C1=CC2=CC[C@@H]3[C@](C)(CCC[C@@]3(C)C(=O)O)[C@H]2C[C@@H]1O [Compound 2, 12α-Hydroxyabietic acid]	17.2 µM (≈ 5.49 µg/mL)	5.42 µM (≈ 1.73 µg/mL)	84.3 µM	1.95 ± 0.07 µM	7.54 ± 0.05 µM	11.81 ± 0.07 µM	23.5 µM (≈ 7.47 µg/mL)	32.6 ± 0.69 µM	3.55 ± 0.06 µM	48.88%	3.31 µM (≈ 1.05 µg/mL)	21.9 ± 0.23 µM	26.9 ± 0.61 µM	3.19 ± 0.04 µM	8.14 ± 0.05 µM	
CC(C)(O)c1ccc2c(c1)CC[C@H]1[C@](C)(C(=O)O)CCC[C@]21C [Compound 4, 15-Hydroxydehydroabietic acid]	9.83 µM (≈ 3.11 µg/mL)	4.06 µM (≈ 1.28 µg/mL)	78.9 µM	1.21 ± 0.04 µM	5.81 ± 0.02 µM	10.08 ± 0.08 µM	15.4 µM (≈ 4.88 µg/mL)	23.4 ± 0.71 µM	1.16 ± 0.06 µM	71.60%	2.06 µM (≈ 0.652 µg/mL)	10.8 ± 0.69 µM	17.4 ± 0.82 µM	2.39 ± 0.03 µM	7.78 ± 0.01 µM	MIC [2, 21]: 2.06 to 4.06 µM; IC50 (RAW 264.7 cells): 50.9 µM
O=C1C=C(Br)/C(=C/Br)O1 [Furanone C-30, (Z)-4-Bromo-5-(bromomethylene)-2(5H)-furanone, reference compound]				11.59 ± 0.03 μM and 3.03 ± 0.08 μg/mL		12.67 ± 0.02 μM and 3.77 ± 0.04 μg/mL								11.81 ± 0.05 μM and 3.21 ± 0.02 μg/mL	12.03 ± 0.08 μM and 3.44 ± 0.06 μg/mL	Anti-QS value of positive control [20, 23]: 11.81 µM; Anti-QS value of positive control [20, 24]: 3 µg/mL
CC1COc2c(N3CCN(C)CC3)c(F)cc3c(=O)c(C(=O)O)cn1c23 (centres unmarked) [OFX, Ofloxacin, reference compound]	11.3 µg/mL and 26.8 µM	10 µg/mL and 24.1 µM					12.3 µg/mL and 28.4 µM				9.03 µg/mL and 25.1 µM					MIC ([2]; read-out: MIC of positive control, for the compounds, strain not stated or range over the four strains): 27.7 µM; MIC ([2]; read-out: MIC of positive control, value given in the method for the extracts, strain not stated): 10 µg/mL
